ChEMBL document CHEMBL3507680, “University of Dundee, Gates Library screen for HepG2 cell viability”

test: Human HepG2 cell viability assay in 384 well format; type: toxicity, cell-based; parameters: dose 125 nL, time 70.5 hour; concentration not given beside the values; details: HepG2 cells, read-out: Inhibition

SMILES	cytotoxicity at 70.5 h
O=C(C1CCCC1)N1CC(c2nc(Cc3ccccc3)no2)C1	-14.5%
CNC(=O)C1CN(Cc2cc(C)on2)CCN(C2CCOCC2)C1 (stereo not given)	-7.77%
CC(C)c1noc(CN2CCOCC2C)n1 (stereo not given)	-4.78%
CC1(Cc2ccc(Cl)cc2)Cc2cc(CCC(=O)O)ccc2O1 (stereo not given)	-6.16%
COCCCN(Cc1ccc(F)cc1Cl)C1CCS(=O)(=O)C1 (stereo not given)	1.64%
COCC1CC2(CCN(Cc3ccc(OC)cc3)CC2)CN1C(C)C (stereo not given)	-13.7%
CCOCCn1c(=O)[nH]c2cc(C(=O)N(C)Cc3cc(C)[nH]n3)ccc21	-6.23%
NC(=O)N1CCCC(C(=O)Nc2cccc(Cl)c2)C1 (stereo not given)	-8.06%
CCC(NC1CCN(C(=O)c2ccccc2)CC1)c1cccs1 (stereo not given)	-16.9%
Cc1ccccc1N1CCN(C(=O)CC(C)C)CC1	0.0324%
CN(Cc1cnn(C)c1)CC1CCCN1c1cccnn1 (stereo not given)	-4.73%
COCCCOc1ccc(C(=O)N(Cc2cnn(C)c2)C(C)C)cn1	-7.46%
COc1ccc(Cl)cc1C(=O)N1C[C@H](C(C)C)[C@@H](N)C1	3.26%
Cc1nn(C)c(N2CCCN(C)CC2)c1CNC(=O)C(C)(C)C	-0.257%
Cn1ncc2c(NC3CCSC3)nc(-c3ccncc3)nc21 (stereo not given)	3.97%
Cc1ccc2oc([C@H]3CCN(Cc4ccccc4)C3)nc2c1	5.17%
Cc1noc(C2CCN(C(=O)CCNS(C)(=O)=O)CC2)n1	-17.2%
CSCCC1c2nc[nH]c2CCN1Cc1ccccc1C(F)(F)F (stereo not given)	0.321%
Cc1ccc(N2CCCC(NCc3ccc4c(c3)CCO4)C2)nn1 (stereo not given)	4.47%
Cc1nc(CN2CCC3(C2)CN(C(=O)c2ccc[nH]2)C3)cs1	-5.84%
CNC(=O)c1cccc(CCNC2CCSc3ccccc32)c1 (stereo not given)	-3.79%
CC(C)C(C(=O)N1CCCN(Cc2cnn(C)c2)CC1)n1cncn1 (stereo not given)	-7.59%
Cc1c(C)c(C)c2[nH]c(-c3cn(C4CCNCC4)nn3)nc2c1C	-5.74%

SMILES	cytotoxicity at 70.5 h
Cc1cnn(CCNCC(O)COc2ccc(Cl)cc2Cl)c1 (stereo not given)	-2.81%
CCCN(CC(=O)OC)S(=O)(=O)c1cnc2c(c1)c(C)nn2C	-7.82%
Cc1ccc(C(=O)N2CC[C@@H]3[C@H]2CCC(=O)N3CCN(C)C)cn1	18.5%
O=C1CC(NCc2cnc(N3CCCC3)nc2)CN1c1ccccc1 (stereo not given)	1.08%
COC(=O)C1CCCCN1Cc1cccc(C(=O)NCc2ccco2)c1 (stereo not given)	-10.4%
CC1N(CC2CC2)C(=O)COC12CCN(C(=O)c1cccs1)CC2 (stereo not given)	-5.2%
COCCNC(=O)N1CC(Cc2ccccc2F)C1	-4.03%
COc1cccc(-c2n[nH]c3c2CN(C(=O)c2ccncc2)CC3)c1	-5.87%
CCn1nc(C)c(CNC(=O)NCC(C)(O)c2ccco2)c1C (stereo not given)	-1.92%
COCC(=O)N1CCC2(COCc3cnc(NCc4ccco4)nc32)C1 (stereo not given)	-2.26%
Cn1cccc1C(=O)NCc1cn2c(n1)CN(Cc1cccnc1)CC2	-12.8%
Cn1nc(C2CNCCO2)cc1CCOc1ccc(C(F)(F)F)cc1 (stereo not given)	-1.52%
CC(C)c1noc(CCC(=O)NC(C)c2nnc3n2CCC3)n1 (stereo not given)	0.884%
Cn1cc(C2CCCN2CCC(=O)N2CCc3sccc3C2)cn1 (stereo not given)	-4.52%
c1cc(CNCc2ccnc(N3CCCCC3)c2)c2c(c1)OCCCO2	-10.6%
O=C(NCC1CC1)[C@@H]1CCO[C@@H]2CCN(c3ncccn3)C[C@@H]21	-3.18%
O[C@@]1(CNCCCOc2cccnc2)CCCN2CCCC[C@@H]21	5.47%
O=C(c1cnccn1)N1CC[C@H]2[C@H]1CCN2S(=O)(=O)C1CC1	-4.25%
Cc1nnc(NCc2ccccc2Cl)c(C#N)c1C	-9.79%
CN(Cc1nc2ccccc2[nH]1)C(=O)C(C)(C)n1cc(Cl)cn1	-12.7%
COC(=O)Cn1ccc(=O)c2ccc(OC)cc21	39.1%
COCCN(CCOC)C(=O)c1cc(F)cc2[nH]cnc12	-4.53%
Cc1ncc(CNCCO)c2cc(C(=O)c3ccc(Br)cc3)oc12	-18%

SMILES	cytotoxicity at 70.5 h
CCc1noc(CN2CCC(C(=O)Nc3cnn(CC)c3)CC2)n1	-10.6%
CCN1C(=O)C(C#N)=C(C)/C(=C/C2=Cc3ccccc3OC2)C1=O	7.28%
O=C(NCCNC(=O)c1ccc(Br)cc1)c1ccc(O)cc1	-11%
CCOC(=O)c1n[nH]cc1-c1cncn1CCn1nc(C)c(C)c1C	-6.65%
CCc1nc(CN(C)CC(N)=O)cs1	-4.25%
CCN(CCNC(=O)c1cccc(C)c1C)C1CC1	-4.1%
Cc1cccc(CN2CCS(=O)(=O)[C@@H]3CCN(C(=O)C4CC4)CC[C@@H]32)n1	15.9%
O=C(NCC1CC1)C1CSCN1S(=O)(=O)c1ccccc1F (stereo not given)	4.99%
O=C(c1nc(COc2ccc3c(c2)OCO3)no1)N1CCCC1	-3.83%
COC(=O)c1cc(C)nc(N2CCN(Cc3cc(C(C)C)no3)CC2)n1	-12.8%
CCc1cc(NCCCNS(C)(=O)=O)nc(-c2ccccn2)n1	-7.43%
COc1ccc(C(=O)N2CC[C@H](CO)[C@H](O)C2)c(C)c1	-4.34%
Cc1c(Br)cnn1CCC(=O)N(C)Cc1c(Cl)cnn1C	30.7%
CCC(Nc1cccc(OC)c1)C(=O)NCc1ccc2c(c1)OCO2 (stereo not given)	-8.45%
O=C(CCn1ccccc1=O)Nc1ccc(C(=O)O)cc1	-4.88%
COc1ccccc1Oc1ncccc1CNC(=O)C1COC(=O)N1 (stereo not given)	-14.6%
O=C1CC[C@H]2CN(c3ncc(F)cn3)CC[C@H]2N1CCc1ccccc1	-6.02%
CCC1CN(C)c2ccccc2CN1CCn1cncn1 (stereo not given)	-9.88%
Cc1n[nH]c2nc(-c3ccccc3O)cc(C(=O)O)c12	13.5%
CN(C)c1cccc(C(=O)Nc2cnn(CC(N)=O)c2)c1	-16.4%
Cc1cnc2n(c1=O)C(CC(=O)NCc1cc(-c3cccs3)on1)CS2 (stereo not given)	55.7%
c1csc(-c2nnc(CSCCN3CCOCC3)o2)c1	12.2%
O=C(Nc1cc(-c2ccncc2)no1)C1CCCCC1	-6.08%

SMILES	cytotoxicity at 70.5 h
O=C(CCNS(=O)(=O)c1cccnc1)N1CCOC(c2ccccc2)C1 (stereo not given)	-13.3%
COc1cccnc1NC(=O)COC1CCCC1	24.8%
c1csc(CN2CCC3(CCOCC3COCC3CC3)CC2)n1 (stereo not given)	-3.9%
CN(Cc1cc(Cl)ccc1Cl)Cc1ncnn1C	-1.99%
c1ccc(N2CCCC3(CCN(Cc4cccs4)C3)C2)nc1 (stereo not given)	33.5%
Fc1cccc(CN2C[C@@H]3CN(Cc4ccccn4)C[C@@H]3C2)c1	-5.09%
O=C(CN1CCN(CC(O)C2CC2)CC1)NCc1ccc(F)cc1 (stereo not given)	-0.525%
CNC(=O)C(C)S(=O)(=O)Cc1csc(-c2cccs2)n1 (stereo not given)	-7.57%
COc1ccc(S(=O)(=O)N2CCC(S(C)(=O)=O)CC2)cc1C	5.77%
Cn1cc(N2CCCC(Nc3ccc4c(c3)CCCO4)C2=O)cn1 (stereo not given)	-0.945%
CC(C)(CNC(=O)C1CCCN1S(C)(=O)=O)N1CCOCC1 (stereo not given)	-11%
Cc1sc(-c2ccco2)nc1C(=O)N(CC(N)=O)C1CCCC1	-2.05%
CCC(c1ccccc1)c1nn2c(CN(CC)CC)nnc2s1 (stereo not given)	-5.77%
CCOCC(O)CN1CCN(C(=O)C2CCC2)CC1 (stereo not given)	-3.91%
COC(=O)N1CCCN(C(=O)NC2CCc3ccccc3C2)CC1 (stereo not given)	-1.7%
Cc1csc(C2CCCN(C(=O)Cn3ccccc3=O)C2)n1 (stereo not given)	-3.71%
CCN1CC(C(=O)NCCc2csc(-c3ccncc3)n2)CCC1=O (stereo not given)	-5.21%
Cc1ccc(C(=O)O)cc1NC(=O)C1CC=CC1	22.9%
CC(C)NC(=O)N1CCC2(CC(C(=O)NCc3cccnc3)=NO2)C1 (stereo not given)	-11.9%
CCn1ncc2[nH]c(-c3cc4c(cc3OC)OCO4)nc21	-4.87%
NCCc1cc(N2CCOCC2)nc(NC2CC2)n1	-8.21%
CN(CCN1CCCC1)c1nccc(N2CCN[C@H]3CS(=O)(=O)C[C@H]32)n1	22.4%
CC(C)(C)C(=O)NC[C@H]1Cn2c(-c3ccccc3)cnc2CO1	-9.72%

SMILES	cytotoxicity at 70.5 h
O=C1CCN(C(=O)NCCCc2ccc(Cl)cc2Cl)CCN1	-7.65%
O=C(c1cccnc1-c1ccoc1)N1C[C@H]2CC[C@@H]1C2	-10.4%
CCOc1ccc(N(C)Cc2nnc(C)o2)cc1	19.3%
CN(Cc1cc(-c2ccccc2)no1)CC1CCCN1c1cccnn1 (stereo not given)	-8.09%
O=C(NCc1cccs1)NCC(O)c1ccoc1 (stereo not given)	-3.33%
CCc1nnc(CN2CCN(c3cccc(OC)c3)C(=O)C2)o1	12.1%
CCN1CCN(C(C)(C)CNc2nc(C)cc(C3CCC3)n2)CC1	-5.33%
Cn1cc(S(=O)(=O)NCCc2ccsc2)cn1	-6.26%
CCN(Cc1ccc2c(c1)OCO2)C(=O)c1cccnc1O	-5.82%
Cc1cccc(NC(=O)N(CCC(F)(F)F)C[C@H](O)CO)c1	-5.55%
CC(CNC(=O)Nc1ccc(N(C)C)nc1)Cn1cccn1 (stereo not given)	-7.16%
CCc1ncnc2c1CCN(Cc1cccs1)CC2	-7.19%
CC(Oc1ccc(S(C)(=O)=O)cc1)C(=O)NC(N)=O (stereo not given)	-7.21%
Cc1cnn(CCCNC(=O)N2CCCCC(N3CCCC3)C2)c1 (stereo not given)	-6.01%
O=C(COc1ccccc1NCc1ccc(F)cc1)N1CCOCC1	-20.5%
Cc1cc(O)n(-c2ccc3nnc(C)n3n2)n1	-19.5%
O=C(Cc1c[nH]c2ccccc12)N1CCC(Nc2ccccc2)CC1	-3.37%
Cc1ccc(-c2cc(CN3CCOC(Cn4cncn4)C3)on2)cc1 (stereo not given)	47.8%
Nc1nccnc1CC1CCCN(Cc2c[nH]c3ccccc23)C1 (stereo not given)	-9.09%
COc1ccc2c(ccn2CCN)c1	5.97%
Cc1noc(C)c1CC(=O)N1CCCC(c2noc(C(C)C)n2)C1 (stereo not given)	-9.31%
Cc1cc(C(=O)N2CC[C@@H]3CN(CCC(C)C)S(=O)(=O)[C@@H]3CC2)no1	-2.89%
Cc1nc(CC(=O)NCCNc2nccc(C(F)(F)F)n2)cs1	-6.39%
